“Also recorded” adds a separate entry of the source.
Tests used:
[1] = Liver microsome stability test, Beagle dog liver microsome; type: in vitro ADME; conditions: microsomes, 0.5 mg protein/mL microsome, 1 μM compound, 37° C., NADPH, read-out: DLM 0.5 T1/2 (min), half life in Beagle dog liver microsome
Protocol: The experimental steps were as follows: • 1. Preparation of working solution • 1.1 Intermediate solution: 5 μL of a 10 mM stock solution of sample or control was taken out, and diluted with 495 μl of methanol (Conc.: 100 μM, 99% MeOH). • 1.2 Working solution: 50 μL of the intermediate solution was taken out, and diluted with 450 μL of a 100 mM potassium phosphate buffer (Conc.: 10 μM, 9.9% MeOH). • 2. Preparation of NADPH cofactor
An appropriate amount of NADPH powder was weighed, and dissolved with a MgCl2 (10 mM) solution. • 3. Liver microsome • 3.1 Liver microsome information
• 3.2 Preparation: a microsome working solution with an appropriate concentration was prepared by using a 100 mM potassium phosphate buffer. • 4. Stop solution
Glacial acetonitrile, comprising 100 ng/ml Tolbutamide and 100 ng/ml Labetalol as internal standards. • 5. Experimental procedures • 5.1 10 μL of the working solution of sample or control was added per well to all plates (T0, T5, T10, T20, T30, T60, NCF60), except for the blank group; • 5.2 80 μL of the working solution of microsome was added per well to all plates, followed by incubation for 10 min at 37° C.; • 5.3 10 μL of a 100 mM potassium phosphate buffer was added per well to NCF60, followed by incubation at 37° C. and starting timer 1;
• 5.4 After preheating, 10 μL of NADPH was added per well to each plate, and reaction was started;
Final concentration of each component in the incubation medium:
• 5.6 300 μL of the stop solution was added per well to stop the reaction; • 5.7 The system was shaken for about 10 min; • 5.8 The samples were centrifuged (4000 rpm) at 4° C. for 20 min; • 5.9 To 8 new 96-well plates, 300 μL of HPLC water was added per well, then 100 μL of the supernatant was added, mixed and subjected to LC/MS/MS.
In the above table, HLM 0.5 T1/2 (min) refers to half life (min) of compounds in human liver microsome, DLM 0.5 T1/2 (min) refers to half life (min) of compounds in Beagle dog liver microsome.

[2] = system: AMPK; assay: AMPK activation in liver of treated high-fat-fed mice by western blot; type: in vivo, mouse; conditions: 90 days after s.c. administration
Excerpt: […]

[3] = system: human hepatocytes; assay: Hepatocyte metabolism assay; type: in vitro ADME
Protocol: Experimental procedures: a test sample (concentration: 10 μM) or a positive control (concentration: 30 μM) was co-incubated with hepatic cells of various genera (cell density: 1.0×10^6 cells/mL) for 120 min under the conditions of 37° C./5% CO2/saturated humidity. The sample was centrifuged after protein precipitation by using acetonitrile solution containing 0.1% formic acid according to the proportion of 1:2, the supernatant was blown dry by nitrogen, and then redissolved by using 200 μl of a 10% acetonitrile/water (containing 0.1% formic acid) solution. 15 μL of the obtained solution was introduced each time to an LC-MS instrument system for analysis.

[4] = system: C57BL/6J male mice; assay: Sugar tolerance test of mice (ip-GTT); type: in vivo, mouse; conditions: intragastric 0.2, 2 mg/kg, glucose 1 g/kg i.p. after 2 h
[5] = system: high-fat-fed obese mice; assay: In vivo efficacy in high-fat-fed obese mice (body weight, liver slice); set-up: species or system mouse; conditions: 90 days
Excerpt: […]

Question: With `Cc1n(CCCCCCCCCCCC(F)(F)C(F)(F)C(F)(F)C(F)(F)C(F)(F)F)cc[n+]1Cc1c(Cl)cccc1Cl.[Cl-]` [IB-33] as the compound, how does the half-life at 1 μM [1] read?
Answer: > 145 min

Question: What about the “AMPK activation in the mice (p-AMPK Thr172, p-ACC Ser79 by western blot)” value [2] of the same compound?
Answer: effectively activate AMPK

Question: What about the “metabolic stability in human hepatocytes (in words)” value ([3]; human hepatocyte incubation, 120 min) of the same compound?
Answer: relatively stable

Question: What about the “relative content of original drug remained” value ([3]; human hepatocytes, after incubation for 120 min) of the same compound?
Answer: 79%

Question: And the “Relative abundance (MS peak area %)” value ([3]; incubation of IB-33 10 μM with human hepatocytes, 120 min, parent drug and its possible metabolites)?
Answer: 79.31%

Question: And the “blood sugar in sugar tolerance test (ip-GTT)” value [4]?
Answer: significantly lower blood sugar; also recorded: effective in lowering blood sugar

Question: And the body weight ([5]; s.c. 0.05, 0.15, 0.3 mg/kg once every two days)?
Answer: significantly reduce the body weight; also recorded: effective in reducing body weight

Question: What about the “fat accumulation in the liver” value ([5]; s.c., HE stained liver slice) of the same compound?
Answer: improve the fat accumulation level in the liver; also recorded: effective in reducing fat accumulation in the liver

From patent publication US12673921B2, “Substituted fluorine-containing imidazole salt compound, preparation method therefor, pharmaceutical composition thereof and use thereof” (XIAMEN VIVOHEALTHS TECHNOLOGY CO., LTD., priority 2019, dated 2026)
